Measured values as given in patent publication US20240109917A1 (ACTELION PHARMACEUTICALS LTD, priority 2020, published 2024).

Legend:
[1] = target: His6-TEV-PDGFRβ (557-1016) (Homo sapiens (Human), UniProt P09619); assay: PDGFRβ HTRF Assay; assay type: biochemical; details: read-out: PDGFR HTRF IC50
How it was run: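 HTRF KinEASE-TK readout (665/620 nm ratio) of TK-biotin substrate phosphorylation by His-tagged PDGFRβ kinase domain. Enzyme and inhibitor preincubated 30 min, then ATP/substrate added for 3 h at room temperature before 60 min EDTA quench/detection.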

VEGFR2, unphosphorylated = VEGFR2, unphosphorylated (Homo sapiens (Human), UniProt P35968); assay: VEGFR ADP GLO Assay; assay type: biochemical
VEGFR2, unphosphorylated, sequence (P35968 20-1356): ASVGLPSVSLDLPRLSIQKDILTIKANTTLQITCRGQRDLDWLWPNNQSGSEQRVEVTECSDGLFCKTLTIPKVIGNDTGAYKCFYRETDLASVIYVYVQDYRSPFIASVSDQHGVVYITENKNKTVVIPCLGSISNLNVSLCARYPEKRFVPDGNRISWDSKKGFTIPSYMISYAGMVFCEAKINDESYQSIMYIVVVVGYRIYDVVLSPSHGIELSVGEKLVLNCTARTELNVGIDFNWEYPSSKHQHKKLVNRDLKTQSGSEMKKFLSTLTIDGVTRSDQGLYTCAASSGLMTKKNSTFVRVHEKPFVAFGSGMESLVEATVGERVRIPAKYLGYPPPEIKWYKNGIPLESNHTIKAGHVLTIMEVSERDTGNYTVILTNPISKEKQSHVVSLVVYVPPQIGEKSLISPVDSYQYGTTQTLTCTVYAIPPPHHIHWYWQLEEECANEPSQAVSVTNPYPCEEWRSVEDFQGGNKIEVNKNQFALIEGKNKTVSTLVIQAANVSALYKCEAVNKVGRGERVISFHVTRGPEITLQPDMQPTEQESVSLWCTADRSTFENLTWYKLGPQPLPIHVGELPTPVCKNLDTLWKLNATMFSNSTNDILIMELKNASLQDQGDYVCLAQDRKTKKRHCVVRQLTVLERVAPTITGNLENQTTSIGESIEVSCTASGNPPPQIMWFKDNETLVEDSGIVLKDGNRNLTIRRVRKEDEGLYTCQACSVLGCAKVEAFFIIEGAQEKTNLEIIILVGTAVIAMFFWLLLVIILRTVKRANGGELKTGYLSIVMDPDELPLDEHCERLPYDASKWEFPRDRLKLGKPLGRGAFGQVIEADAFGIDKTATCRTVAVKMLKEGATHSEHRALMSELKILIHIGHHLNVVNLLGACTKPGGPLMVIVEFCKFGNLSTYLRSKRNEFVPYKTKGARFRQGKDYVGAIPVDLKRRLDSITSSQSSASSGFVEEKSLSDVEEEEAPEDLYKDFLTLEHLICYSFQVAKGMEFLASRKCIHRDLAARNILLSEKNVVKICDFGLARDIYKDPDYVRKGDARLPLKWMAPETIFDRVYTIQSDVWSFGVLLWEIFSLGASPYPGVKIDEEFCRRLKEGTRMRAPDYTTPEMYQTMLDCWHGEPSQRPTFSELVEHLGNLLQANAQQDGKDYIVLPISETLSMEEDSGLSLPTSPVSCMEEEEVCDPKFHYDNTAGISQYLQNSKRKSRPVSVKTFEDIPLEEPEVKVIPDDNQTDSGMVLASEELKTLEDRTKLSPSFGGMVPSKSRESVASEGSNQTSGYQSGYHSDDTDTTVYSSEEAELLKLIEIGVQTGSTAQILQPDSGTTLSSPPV

His6-TEV-PDGFRβ (557-1016), sequence (P09619 557-1016): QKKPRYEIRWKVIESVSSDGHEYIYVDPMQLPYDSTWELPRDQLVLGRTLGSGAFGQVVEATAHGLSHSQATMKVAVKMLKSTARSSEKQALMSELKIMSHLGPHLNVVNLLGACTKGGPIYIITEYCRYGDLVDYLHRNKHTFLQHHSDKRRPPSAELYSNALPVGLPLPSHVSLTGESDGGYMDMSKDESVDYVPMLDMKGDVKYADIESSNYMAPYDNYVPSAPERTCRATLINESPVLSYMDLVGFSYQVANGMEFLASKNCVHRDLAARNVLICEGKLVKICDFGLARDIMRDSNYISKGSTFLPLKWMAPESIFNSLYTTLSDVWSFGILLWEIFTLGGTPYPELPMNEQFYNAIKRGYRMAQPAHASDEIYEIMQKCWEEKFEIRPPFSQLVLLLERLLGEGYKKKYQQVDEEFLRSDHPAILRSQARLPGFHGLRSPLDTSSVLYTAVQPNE

Compound | IC50 [1] | IC50 (VEGFR2, unphosphorylated)
Cc1ncc(NC(=O)CN2C[C@@H](CO)O[C@@H](C)C2)cc1NC(=O)c1cnn2cc(-c3cnn(C)c3)sc12 (relative stereo) [Example 378, N-(5-(2-(cis-2-(hydroxymethyl)-6-methylmorpholino)acetamido)-2-methylpyridin-3-yl)-2-(1-methyl-1H-pyrazol-4-yl)pyrazolo[5,1-b]thiazole-7-carboxamide] | 0.8 nM | > 2500 nM
Cc1ncc(NC(=O)CN2CCC3(CC3)C2)cc1NC(=O)c1cnn2cc(-c3cnn(CCO)c3)sc12 [Example 32, N-(5-(2-(5-azaspiro[2.4]heptan-5-yl)acetamido)-2-methylpyridin-3-yl)-2-(1-(2-hydroxyethyl)-1H-pyrazol-4-yl)pyrazolo[5,1-b]thiazole-7-carboxamide] | 0.7 nM | > 7500 nM
COc1cccc(-c2cn3ncc(C(=O)Nc4cc(NC(=O)CN5C[C@H](C)O[C@@H](C)C5)cnc4C)c3s2)n1 (relative stereo) [Example 386, N-(5-(2-(trans-2,6-dimethylmorpholino)acetamido)-2-methylpyridin-3-yl)-2-(6-methoxypyridin-2-yl)pyrazolo[5,1-b]thiazole-7-carboxamide] | 0.4 nM | > 833 nM
COc1ncccc1-c1cn2ncc(C(=O)Nc3cc(NC(=O)CN4C[C@H](C)O[C@@H](C)C4)cnc3C)c2s1 (relative stereo) [Example 368, N-(5-(2-(trans-2,6-dimethylmorpholino)acetamido)-2-methylpyridin-3-yl)-2-(2-methoxypyridin-3-yl)pyrazolo[5,1-b]thiazole-7-carboxamide] | 0.3 nM | > 7500 nM
Cc1ncc(NC(=O)CN2CCCC[C@H]2C)cc1NC(=O)c1cnn2cc(-c3cnn(CCO)c3)sc12 [Example 33, (R)-2-(1-(2-hydroxyethyl)-1H-pyrazol-4-yl)-N-(2-methyl-5-(2-(2-methyl-piperidin-1-yl)acetamido)pyridin-3-yl)pyrazolo[5,1-b]thiazole-7-carboxamide] | 0.7 nM | > 7500 nM
Cc1ncc(NC(=O)C2CN(C(C)C)C2)cc1NC(=O)c1cnn2cc(-c3cnn4c3OCCC4)sc12 [Example 348, 2-(6,7-dihydro-5H-pyrazolo[5,1-b][1,3]oxazin-3-yl)-N-(5-(1-isopropylazetidine-3-carboxamido)-2-methylpyridin-3-yl)pyrazolo[5,1-b]thiazole-7-carboxamide] | 0.4 nM | > 7500 nM
Cc1cnn(C)c1-c1cn2ncc(C(=O)Nc3cc(NC(=O)CN4CC(C)(C)C4)cnc3C)c2s1 [Example 389, 2-(1,4-dimethyl-1H-pyrazol-5-yl)-N-(5-(2-(3,3-dimethylazetidin-1-yl)acetamido)-2-methylpyridin-3-yl)pyrazolo[5,1-b]thiazole-7-carboxamide] | 0.6 nM | > 7500 nM
COc1ncccc1-c1cn2ncc(C(=O)Nc3cc(NC(=O)CN4CC5(COC5)C4)cnc3C)c2s1 [Example 404, N-(5-(2-(2-oxa-6-azaspiro[3.3]heptan-6-yl)acetamido)-2-methylpyridin-3-yl)-2-(2-methoxypyridin-3-yl)pyrazolo[5,1-b]thiazole-7-carboxamide] | 0.3 nM | > 7500 nM
Cc1ncc(NC(=O)C2CCN(C(C)C)C2)cc1NC(=O)c1cnn2cc(-c3cn(C)nc3C)sc12 (centres unmarked) [Example 355, 2-(1,3-dimethyl-1H-pyrazol-4-yl)-N-(5-(1-isopropylpyrrolidine-3-carboxamido)-2-methylpyridin-3-yl)pyrazolo[5,1-b]thiazole-7-carboxamide] | 0.4 nM | > 7500 nM
Cc1ncc(NC(=O)CN2C[C@H](C)O[C@@H](C)C2)cc1NC(=O)c1cnn2cc(-c3cc[nH]c3)sc12 [Example 365, N-(5-(2-(2,6-trans-dimethylmorpholino)acetamido)-2-methylpyridin-3-yl)-2-(1H-pyrrol-3-yl)pyrazolo[5,1-b]thiazole-7-carboxamide] | 0.3 nM | 596 nM
COCCn1cc(-c2cn3ncc(C(=O)Nc4cc(NC(=O)C5CN(C(C)C)C5)cnc4C)c3s2)cn1 [Example 342, N-(5-(1-isopropylazetidine-3-carboxamido)-2-methylpyridin-3-yl)-2-(1-(2-methoxyethyl)-1H-pyrazol-4-yl)pyrazolo[5,1-b]thiazole-7-carboxamide] | 0.6 nM | > 7500 nM
COCCn1cc(-c2cn3ncc(C(=O)Nc4cc(NC(=O)CN5CCC(C6CC6)C5)cnc4C)c3s2)cn1 (centres unmarked) [Example 341, N-(5-(2-(3-cyclopropylpyrrolidin-1-yl)acetamido)-2-methylpyridin-3-yl)-2-(1-(2-methoxyethyl)-1H-pyrazol-4-yl)pyrazolo[5,1-b]thiazole-7-carboxamide] | 0.4 nM | > 7500 nM
Cc1ncc(NC(=O)CN2CCC[C@H]2C)cc1NC(=O)c1cnn2cc(-c3cnn(C)c3)sc12 [Example 26, (R)-2-(1-methyl-1H-pyrazol-4-yl)-N-(2-methyl-5-(2-(2-methyl-pyrrolidin-1-yl)acetamido)pyridin-3-yl)pyrazolo[5,1-b]thiazole-7-carboxamide] | 0.8 nM | > 7500 nM
Cc1ncc(NC(=O)CN2CCC23CCC3)cc1NC(=O)c1cnn2cc(-c3ccnc(N4CCOCC4)c3)sc12 [Example 353, N-(5-(2-(1-azaspiro[3.3]heptan-1-yl)acetamido)-2-methylpyridin-3-yl)-2-(2-morpholinopyridin-4-yl)pyrazolo[5,1-b]thiazole-7-carboxamide] | 0.2 nM | > 7500 nM
COc1ncccc1-c1cn2ncc(C(=O)Nc3cc(NC(=O)CN4CC(C)(OC)C4)cnc3C)c2s1 [Example 396, N-(5-(2-(3-methoxy-3-methylazetidin-1-yl)acetamido)-2-methylpyridin-3-yl)-2-(2-methoxypyridin-3-yl)pyrazolo[5,1-b]thiazole-7-carboxamide] | 0.3 nM | > 7500 nM
Cc1ncc(NC(=O)CN2C[C@H](C)O[C@@H](C)C2)cc1NC(=O)c1cnn2cc(-c3c[nH]nc3C)sc12 (relative stereo) [Example 371, N-(5-(2-(trans-2,6-dimethylmorpholino)acetamido)-2-methylpyridin-3-yl)-2-(3-methyl-1H-pyrazol-4-yl)pyrazolo[5,1-b]thiazole-7-carboxamide] | 0.4 nM | > 2500 nM
Cc1ncc(NC(=O)CN2CCC3(CCC3)C2)cc1NC(=O)c1cnn2cc(-c3cnn(CCO)c3)sc12 [Example 30, N-(5-(2-(6-azaspiro[3.4]octan-6-yl)acetamido)-2-methylpyridin-3-yl)-2-(1-(2-hydroxyethyl)-1H-pyrazol-4-yl)pyrazolo[5,1-b]thiazole-7-carboxamide] | 0.5 nM | > 7500 nM
Cc1ncc(NC(=O)CN2C[C@H](C)O[C@@H](C)C2)cc1NC(=O)c1cnn2cc(-c3cc[nH]n3)sc12 (relative stereo) [Example 374, N-(5-(2-(trans-2,6-dimethylmorpholino)acetamido)-2-methylpyridin-3-yl)-2-(1H-pyrazol-3-yl)pyrazolo[5,1-b]thiazole-7-carboxamide] | 0.4 nM | > 7500 nM
COc1ncccc1-c1cn2ncc(C(=O)Nc3cc(NC(=O)CN4C[C@@H](CO)OC(C)(C)C4)cnc3C)c2s1 [Example 380, (S)—N-(5-(2-(6-(hydroxymethyl)-2,2-dimethylmorpholino)acetamido)-2-methylpyridin-3-yl)-2-(2-methoxypyridin-3-yl)pyrazolo[5,1-b]thiazole-7-carboxamide] | 0.4 nM | > 2500 nM
Cc1ncc(NC(=O)CN2CC3(CCOCC3)C2)cc1NC(=O)c1cnn2cc(-c3cnn4c3OCCC4)sc12 [Example 406, N-(5-(2-(7-oxa-2-azaspiro[3.5]nonan-2-yl)acetamido)-2-methylpyridin-3-yl)-2-(6,7-dihydro-5H-pyrazolo[5,1-b][1,3]oxazin-3-yl)pyrazolo[5,1-b]thiazole-7-carboxamide] | 0.4 nM | > 7500 nM
COc1ncccc1-c1cn2ncc(C(=O)Nc3cc(NC(=O)CN4C[C@H](C)O[C@@H](C)C4)cnc3C)c2s1 (relative stereo) [Example 384, N-(5-(2-(trans-2,6-dimethylmorpholino)acetamido)-2-methylpyridin-3-yl)-2-(2-methoxypyridin-3-yl)pyrazolo[5,1-b]thiazole-7-carboxamide] | 0.4 nM | > 833 nM
Cc1ncc(NC(=O)CN2CCC[C@@H]2C)cc1NC(=O)c1cnn2cc(-c3cnn(C)c3)sc12 [Example 27, (S)-2-(1-methyl-1H-pyrazol-4-yl)-N-(2-methyl-5-(2-(2-methyl-pyrrolidin-1-yl)acetamido)pyridin-3-yl)pyrazolo[5,1-b]thiazole-7-carboxamide] | 0.9 nM | > 7500 nM
COc1ncccc1-c1cn2ncc(C(=O)Nc3cc(NC(=O)CN4C[C@H](CO)OC(C)(C)C4)cnc3C)c2s1 [Example 379, (R)—N-(5-(2-(6-(hydroxymethyl)-2,2-dimethylmorpholino)acetamido)-2-methylpyridin-3-yl)-2-(2-methoxypyridin-3-yl)pyrazolo[5,1-b]thiazole-7-carboxamide] | 0.4 nM | > 2500 nM
COCCn1cc(-c2cn3ncc(C(=O)Nc4cc(NC(=O)CN5CCCCCC5)cnc4C)c3s2)cn1 [Example 339, N-(5-(2-(azepan-1-yl)acetamido)-2-methylpyridin-3-yl)-2-(1-(2-methoxyethyl)-1H-pyrazol-4-yl)pyrazolo[5,1-b]thiazole-7-carboxamide] | 0.4 nM | > 7500 nM
Cc1ncc(NC(=O)CN2C[C@H](C)O[C@@H](C)C2)cc1NC(=O)c1cnn2cc(-c3cnc(N)c(F)c3)sc12 (relative stereo) [Example 372, 2-(6-amino-5-fluoropyridin-3-yl)-N-(5-(2-(trans-2,6-dimethylmorpholino)acetamido)-2-methylpyridin-3-yl)pyrazolo[5,1-b]thiazole-7-carboxamide] | 0.6 nM | > 2500 nM
